Values of other authors, collected in US6743775B2, “Slow release formulations comprising anionic polysaccharide” (Alpenstock Holdings Limited, priority 1998, dated 2004).

Conditions: gelatine alone; Schwartz et al., Principles of Surgery 1979

For gelatine, the haemostatic effect is listed as “only displays a haemostatic effect after an addition of thrombin”.
